Some results are limits rather than exact numbers.

For one assay, the system named is PR8-PB2-F323L. Format: cell-based, influenza A virus.
For another assay, the system named is PR8-PB2-M431I. Format: cell-based, influenza A virus.
The test system of the next assay is PR8-PB2-S324R. Format: cell-based, influenza A virus.
The next assay has as its system PR8-PB2-K376R. Format: cell-based, influenza A virus.
The test system of another assay is PR8-PB2-K376Q. Format: cell-based, influenza A virus.
The next assay relates to PR8-PB2-S324N. Format: cell-based, influenza A virus.
Assay [1] deals with A/Puerto Rico/8/34, A/California/07/2009, A/Wisconsin/67/2005 influenza virus variants. Format: cell-based.
In a further assay the test system is PR8-Wild Type. In words: microbe, parasite or virus in culture. In kind it is cell-based, influenza A virus.
The subject of a further assay is PR8-PB2-H357Q. Format: cell-based, influenza A virus.
The subject of a further assay is PR8-PB2-F325V. Format: cell-based, influenza A virus.

Consider `CC(C)(C)[C@@H](CC(=O)O)Nc1nc(-c2c[nH]c3ncc(F)cc23)ncc1F` [Compound 1], for which the “Sensitivity to Compound 1 Fold EC50 Shift” value amounted to 8.5 fold with PR8-PB2-F323L; 131 fold in the assay on PR8-PB2-M431I; 33 fold with PR8-PB2-S324R; 231 fold in the assay with PR8-PB2-K376R; 408 fold in the assay on PR8-PB2-K376Q; 31 fold in the assay on PR8-PB2-S324N. The “Sensitivity to Compound 1 Fold EC50 Shift” value amounted to 1.0 fold in the assay with PR8-Wild Type, 15 fold with PR8-PB2-H357Q and 3.5 fold with PR8-PB2-F325V. In addition, the “reduction in sensitivity to Compound 1” value in [1] is listed as above 10 fold. In assay [1], the “shift in Compound 1 EC50” value is 10- to 1720 fold. In addition, the “shifts in sensitivity to Compound 1” value in [1] is on record as “greater than 10 fold”. The EC50 in the assay on PR8-Wild Type (Influenza A virus, PR8, MDCK, read-out: Sensitivity to Compound 1 EC50 (SD)) was found to be 1.3 nM.

The term EC50 denotes the concentration at which the effect is half-maximal.

The values above are taken from US10801077B2, “Influenza A virus variants” (Vertex Pharmaceuticals Incorporated, priority 2014, dated 2020).
